Experimental data as given in article PMC8594567 (Journal of the American Chemical Society, 2021).
Like-named read-outs stand apart in the source and are kept apart here.

Assays:
CYP3A5 [1] = biological target: T1, CYP3A5 (Homo sapiens, UniProt P20815); experiment: UV-Vis spectroscopy binding assay, CYP3A5
purified human CYP3A5 [2] = biological target: T2, purified human CYP3A5 (Homo sapiens, UniProt P20815); settings: 10 min
purified human CYP3A4 [3] = biological target: T3, purified human CYP3A4 (Homo sapiens, UniProt P08684); settings: 10 min
CYP3A4 = CYP3A4 (Homo sapiens, UniProt P08684); experiment: UV-Vis spectroscopy binding assay, CYP3A4; settings: for increase in Ks on removal of the region B group: CYP3A4, region B-deleted analog vs parent
purified human CYP3A5 [4] = biological target: T2, purified human CYP3A5; experiment: Biochemical P450-Glo CYP3A inhibition assay, CYP3A5
purified human CYP3A4 [5] = biological target: T3, purified human CYP3A4; experiment: Biochemical P450-Glo CYP3A inhibition assay, CYP3A4
CYP3A5 G480L = CYP3A5 G480L (Homo sapiens, UniProt P20815, G480L); experiment: Cell-based P450-Glo CYP3A mutant inhibition assay, CYP3A5 G480L; settings: G480L substitution; 293T/17 cells
CYP3A5 G480S = CYP3A5 G480S (Homo sapiens, UniProt P20815, G480S); experiment: Cell-based P450-Glo CYP3A mutant inhibition assay, CYP3A5 G480S; settings: G480S substitution; 293T/17 cells
CYP3A5^G480A = CYP3A5^G480A (Homo sapiens, UniProt P20815, G480A); experiment: Cell-based P450-Glo CYP3A mutant inhibition assay, CYP3A5 G480A; settings: 293T/17 cells
CYP3A5^G214A/G480A = CYP3A5^G214A/G480A (Homo sapiens, UniProt P20815, G214A/G480A); experiment: Cell-based P450-Glo CYP3A mutant inhibition assay, CYP3A5 G214A/G480A; settings: 0.08–20 μM CBZ; 293T/17 cells
CYP3A4^WT = CYP3A4^WT (Homo sapiens, UniProt P08684); experiment: Cell-based P450-Glo CYP3A mutant inhibition assay, CYP3A4 WT; settings: 293T/17 cells; also prior data ref 30
CYP3A4^D214G = CYP3A4^D214G (Homo sapiens, UniProt P08684, D214G); experiment: Cell-based P450-Glo CYP3A mutant inhibition assay, CYP3A4 D214G; settings: 293T/17 cells
CYP3A4^F108L = CYP3A4^F108L (Homo sapiens, UniProt P08684, F108L); experiment: Cell-based P450-Glo CYP3A mutant inhibition assay, CYP3A4 F108L; settings: relative to CYP3A4^WT; 293T/17 cells
CYP3A5 [6] = biological target: T1, CYP3A5; experiment: Time-dependent inhibition assay; type: biochemical; settings: pre-incubation 0 or 30 mins at room temperature
CYP3A5 [7] = biological target: T1, CYP3A5; experiment: in vitro

SMILES: CCCC(=O)O[C@]1(C(=O)COC(C)=O)CC[C@H]2[C@@H]3C[C@H](F)C4=CC(=O)C=C[C@]4(C)[C@@]3(F)[C@@H](O)C[C@@]21C [difluprednate]
- increase in Ks on removal of the region B group (CYP3A5 [1]; human, pH 7.4): > 100 fold
- CYP3A5 inhibition (purified human CYP3A5 [2]): strongest and most selective CYP3A5 inhibitor among all compounds we tested
- weakening of CYP3A4 inhibition on deleting the region B group (purified human CYP3A4 [3]): approximately 10 fold
- increase in Ks on removal of the region B group (CYP3A4): 3 fold

SMILES: CCOC(=O)O[C@]1(C(=O)COC(=O)CC)CC[C@H]2[C@@H]3CCC4=CC(=O)C=C[C@]4(C)[C@H]3[C@@H](O)C[C@@]21C [prednicarbate, Prednicarbate]
- CYP3A5 inhibition (purified human CYP3A5 [2]): consistently weaker CYP3A5 inhibition

SMILES: C[C@H]1C[C@H]2[C@@H]3CCC4=CC(=O)C=C[C@]4(C)[C@@]3(F)[C@@H](O)C[C@]2(C)[C@@]1(O)C(=O)CCl [clobetasol, Clobetasol]
- Ks relative to the counterpart with region B group (CYP3A5 [1]; dexamethasone acetate vs difluprednate, clobetasol vs CBZ, Ks higher): > 100 fold
- CYP3A5 inhibition (purified human CYP3A5 [4]; P450-Glo biochemical assay): failed to inhibit CYP3A5 even at the highest concentration tested
- IC50 (purified human CYP3A4 [5]; purified full-length CYP3A4, luciferin-IPA): 13 ± 4 µM

SMILES: CCC(=O)OCC(=O)[C@@]1(OC(=O)CC)[C@@H](C)C[C@H]2[C@@H]3CCC4=CC(=O)C=C[C@]4(C)[C@@]3(F)[C@@H](O)C[C@@]21C [betamethasone dipropionate]
- CYP3A5 inhibition (purified human CYP3A5 [2]): consistently weaker CYP3A5 inhibition

SMILES: CCCC(=O)O[C@]1(C(=O)CCl)[C@@H](C)C[C@H]2[C@@H]3CCC4=CC(=O)C=C[C@]4(C)[C@@]3(F)C(=O)C[C@@]21C [clobetasone butyrate, Clobetasone butyrate]
- Ks for CYP3A4 compared with CBZ (CYP3A4): maintained similar Ks value
- weaker CYP3A5 inhibition than CBZ (IC50 ratio) (purified human CYP3A5 [4]; IC50 of analog relative to CBZ): approximately 5 fold
- CYP3A4 inhibition (purified human CYP3A4 [5]; P450-Glo biochemical assay): slightly enhanced CYP3A4 inhibition

SMILES: C[C@@H]1C[C@H]2[C@@H]3CCC4=CC(=O)C=C[C@]4(C)[C@@]3(F)[C@@H](O)C[C@]2(C)[C@H]1C(=O)CO [desoximetasone]
- CYP3A5 inhibition (purified human CYP3A5 [2]): no or weaker CYP3A5 inhibition than that of CBZ

SMILES: CCC(=O)O[C@]1(C(=O)CCl)[C@@H](C)C[C@H]2[C@@H]3CCC4=CC(=O)C=C[C@]4(C)[C@@]3(F)[C@@H](O)C[C@@]21C [CBZ, Clobetasol propionate]
- reduction in potency vs WT (CYP3A5 G480L): at least 20 fold
- reduction in potency vs WT (CYP3A5 G480S): at least 20 fold
- inhibition compared with CYP3A5^WT (CYP3A5^G480A): to the same extent as was CYP3A5^WT
- effect on enzyme activity (CYP3A5^G214A/G480A): weakly activated
- CYP3A4 inhibition (CYP3A4^WT): can be inhibited at high CBZ concentrations
- inhibition compared with CYP3A4^WT (CYP3A4^D214G): identically
- effect of the F108L substitution on inhibitory potency (CYP3A4^F108L): substantially weakened the inhibitory potency
- time-dependent inhibition of CYP3A5 (CYP3A5 [6]): not time-dependent inhibitors of CYP3A5
- CYP3A5 inhibition (purified human CYP3A5 [2]): potent and selective inhibitor of CYP3A5
- increase in Ks on removal of the region B group (CYP3A4): approximately 20 fold

SMILES: CC(=O)OCC(=O)[C@@]1(OC(C)=O)[C@@H](C)C[C@H]2[C@@H]3C[C@H](F)C4=CC(=O)C=C[C@]4(C)[C@@]3(F)[C@@H](O)C[C@@]21C [diflorasone]
- CYP3A5 inhibition (purified human CYP3A5 [2]): no or weaker CYP3A5 inhibition than that of CBZ
- CYP3A4 inhibition (purified human CYP3A4 [3]): still capable of inhibiting CYP3A4 at high concentrations

SMILES: CC(=O)OCC(=O)[C@@]1(O)[C@H](C)C[C@H]2[C@@H]3CCC4=CC(=O)C=C[C@]4(C)[C@@]3(F)[C@@H](O)C[C@@]21C [dexamethasone acetate]
- Ks relative to the counterpart with region B group (CYP3A5 [1]; human, pH 7.4): > 100 fold
- inhibition at 10 min, 300 µM (CYP3A5 [7]): 35%
